Experiments:
[1] = target: HCV NS3-NS4A protease (tNS3 with KK4A) (Hepatitis C virus genotype 1a, UniProt P27958); experiment: HCV Ki assay (HPLC microbore separation of 5AB substrate and products); assay type: biochemical; conditions: 25 nM tNS3, 25 μM KK4A, 25 μM 5AB substrate, 20 min at 30 C
Experimental: HPLC Microbore Method for Separation of 5AB Substrate and Products
• NH2-Glu-Asp-Val-Val-(alpha)Abu-Cys-Ser-Met-Ser-Tyr-COOH
A stock solution of 20 mM 5 AB (or concentration of your choice) was made in DMSO w/0.2M DTT. This was stored in aliquots at −20 C.
Buffer: 50 mM HEPES, pH 7.8; 20% glycerol; 100 mM NaCl
Total assay volume was 100 μL
The buffer, KK4A, DTT, and tNS3 were combined; distributed 78 μL each into wells of 96 well plate. This was incubated at 30 C for ˜5-10 min.
2.5 μL of appropriate concentration of test compound was dissolved in DMSO (DMSO only for control) and added to each well. This was incubated at room temperature for 15 min.
Initiated reaction by addition of 20 μL of 250 μM 5AB substrate (25 μM concentration is equivalent or slightly lower than the Km for 5 AB). • Incubated for 20 min at 30 C. • Terminated reaction by addition of 25 μL of 10% TFA • Transferred 120 μL aliquots to HPLC vials
Separated SMSY product from substrate and KK4A by the following method:
Microbore Separation Method:
• Instrumentation: Agilent 1100 • Degasser G1322A • Binary pump G1312A • Autosampler G1313A • Column thermostated chamber G1316A • Diode array detector G1315A • Column: • Phenomenex Jupiter; 5 micron C18; 300 angstroms; 150×2 mm; P/O 00F-4053-B0 • Column thermostat: 40 C • Injection volume: 100 μL • Solvent A=HPLC grade water+0.1% TFA • Solvent B=HPLC grade acetonitrile+0.1% TFA
• Stop time: 17 min • Post-run time: 10 min.

[2] = tested on: Cells containing hepatitis C virus (HCV) replicon; experiment: HCV replicon cell assay (Taqman RT-PCR of HCV RNA); assay type: cell-based; conditions: concentration at which 50% inhibition of HCV RNA level is observed, 48-hour incubation, 2% FBS
Experimental: HCV Replicon Cell Assay Protocol
Cells containing hepatitis C virus (HCV) replicon were maintained in DMEM containing 10% fetal bovine serum (FBS), 0.25 mg per ml of G418, with appropriate supplements (media A).
On day 1, replicon cell monolayer was treated with a trypsin:EDTA mixture, removed, and then media A was diluted into a final concentration of 100,000 cells per ml wit. 10,000 cells in 100 ul were plated into each well of a 96-well tissue culture plate, and cultured overnight in a tissue culture incubator at 37° C.
On day 2, compounds (in 100% DMSO) were serially diluted into DMEM containing 2% FBS, 0.5% DMSO, with appropriate supplements (media B). The final concentration of DMSO was maintained at 0.5% throughout the dilution series.
Media on the replicon cell monolayer was removed, and then media B containing various concentrations of compounds was added. Media B without any compound was added to other wells as no compound controls.
Cells were incubated with compound or 0.5% DMSO in media B for 48 hours in a tissue culture incubator at 37° C. At the end of the 48-hour incubation, the media was removed, and the replicon cell monolayer was washed once with PBS and stored at −80° C. prior to RNA extraction.
Culture plates with treated replicon cell monolayers were thawed, and a fixed amount of another RNA virus, such as Bovine Viral Diarrhea Virus (BVDV) was added to cells in each well. RNA extraction reagents (such as reagents from RNeasy kits) were added to the cells immediately to avoid degradation of RNA. Total RNA was extracted according the instruction of manufacturer with modification to improve extraction efficiency and consistency. Finally, total cellular RNA, including HCV replicon RNA, was eluted and stored at −80° C. until further processing.
A Taqman real-time RT-PCR quantification assay was set up with two sets of specific primers and probe. One was for HCV and the other was for BVDV. Total RNA extractants from treated HCV replicon cells was added to the PCR reactions for quantification of both HCV and BVDV RNA in the same PCR well. Experimental failure was flagged and rejected based on the level of BVDV RNA in each well. The level of HCV RNA in each well was calculated according to a standard curve run in the same PCR plate. The percentage of inhibition or decrease of HCV RNA level due to compound treatment was calculated using the DMSO or no compound control as 0% of inhibition. The IC50 (concentration at which 50% inhibition of HCV RNA level is observed) was calculated from the titration curve of any given compound.

Chain of HCV NS3-NS4A protease (tNS3 with KK4A) (P27958 1658-1711): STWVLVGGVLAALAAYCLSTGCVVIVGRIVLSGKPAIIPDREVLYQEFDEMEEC
Chain of HCV NS3-NS4A protease (tNS3 with KK4A) (P27958 1027-1208): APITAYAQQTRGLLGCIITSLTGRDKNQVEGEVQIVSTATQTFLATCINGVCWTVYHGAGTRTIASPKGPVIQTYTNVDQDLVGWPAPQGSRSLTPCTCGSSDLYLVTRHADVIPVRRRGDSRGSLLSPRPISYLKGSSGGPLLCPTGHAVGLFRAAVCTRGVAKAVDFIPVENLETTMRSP

SMILES	Ki [1] [nM]	IC50 [2] [nM]
CCC[C@H](NC(=O)[C@@H]1CC2(CN1C(=O)[C@@H](NC(=O)[C@@H](NC(=O)c1cnccn1)C1CCCCC1)C(C)(C)C)SCCS2)C(=O)C(=O)NC1CC1 [Compound 7a]	< 500	< 500
CCC[C@H](NC(=O)[C@@H]1CC2(CN1C(=O)[C@@H](NC(=O)[C@@H](NC(=O)c1[nH]c(C)c(C)c1C(C)=O)C1CCCCC1)C(C)(C)C)SCCCS2)C(=O)C(=O)NC1CC1 [Compound 1a, 2-(2-{2-[(3-acetyl-4,5-dimethyl-1H-pyrrole-2-carbonyl)-amino]-2-cyclohexyl-acetylamino}-3,3-dimethyl-butyryl)-6,10-dithia-2-aza-spiro[4.5]decane-3-carboxylic acid(1-cyclopropylaminooxalyl-butyl)-amide]	< 500	< 500
CCC[C@@H](NC(=O)[C@@H]1CC2(CN1C(=O)[C@@H](NC(=O)[C@@H](NC(=O)c1cnccn1)C1CCCCC1)C(C)(C)C)SCCCS2)C(=O)C(=O)NC1CC1 [Compound 5a]	< 500	–
CCC[C@H](NC(=O)[C@@H]1CC2(CN1C(=O)[C@@H](NC(=O)[C@@H](NC(=O)c1cnccn1)C1CCCCC1)C(C)(C)C)SCCCS2)C(=O)C(N)=O [Compound 3a]	< 500	< 500
CCC[C@H](NC(=O)[C@@H]1CC2(CN1C(=O)[C@@H](NC(=O)[C@@H](NC(=O)c1cnccn1)C1CCCCC1)C(C)(C)C)SCCCS2)C(=O)C(=O)NC1CC1 [Compound 2a, 2-(2-{2-cyclohexyl-2-[(pyrazine-2-carbonyl)-amino]-acetylamino}-3,3-dimethyl-butyryl)-6,10-dithia-2-azaspiro[4.5]decane-3-carboxylic acid(1-cyclopropylaminooxalyl-butyl)-amide]	< 500	< 500
CCCC(NC(=O)[C@@H]1CC2(CN1C(=O)[C@@H](NC(=O)[C@@H](NC(=O)c1cnccn1)C1CCCCC1)C(C)(C)C)SCCCS2)C(=O)C(=O)NC1CC1 (stereo partly drawn) [Compound 6a]	< 500	–
CCC[C@H](NC(=O)[C@@H]1CC2(CN1C(=O)[C@@H](NC(=O)[C@@H](NC(=O)c1[nH]c(C)c(C)c1C(C)=O)C1CCCCC1)C(C)(C)C)SCCCS2)C(=O)C(N)=O [Compound 4a]	< 500	< 500
